In PMC7344333 (Journal of medicinal chemistry, 2019):

Columns and labels:
LPA2 = conditions: read-out: EC50 at LPA2; cited from earlier work
LPA1 = conditions: read-out: EC50 at LPA1; cited from earlier work
LPA1 receptor = LPA1 receptor (Homo sapiens, UniProt Q92633); test: Ca2+ mobilization assay in LPA1 stably transfected RH7777 cells; type: cell-based; conditions: for LPA1 agonist activity (in words): highest concentration tested 10 μM
[1] = tested on: B103 neuroblastoma cells overexpressing EGFP-LPA1 receptor; test: neurite retraction assay; type: cell-based; conditions: 15 minutes treatment
mice [2] = test: open field test, exploratory and locomotor activity; type: in vivo, mouse; conditions: at the selected dose (10 mg/kg i.p.)
mice [3] = test: acetic acid-induced writhing assay; type: in vivo, mouse
[4] = stability studies in PBS and cellular culture medium; type: physicochemical; conditions: up to 8 hours at 37 °C
mice with SNI = test: spared nerve injury; type: in vivo, mouse; conditions: 10 mg/kg i.p. daily; 3, 10 and 21 days post-surgery, vs vehicle
[5] = tested on: dorsal root ganglia (DRG) neurons; test: calcium microfluorography in primary DRG sensory neurons; type: cell-based, rat; conditions: two repetitive applications of 10 μM
[6] = tested on: DRG neurons (nociceptors); test: multielectrode array; type: cell-based, rat; conditions: 10 μM, two consecutive pulses
[7] = tested on: B103 neuroblastoma cells overexpressing LPA1 receptor; test: transwell migration assay; type: cell-based; conditions: 1 μM in lower chamber, 5 h
[8] = tested on: EGFP-LPA1 fusion receptor; test: LPA1 receptor internalization assay; conditions: 1 μM

Sequence of LPA1 receptor (Q92633 whole entry): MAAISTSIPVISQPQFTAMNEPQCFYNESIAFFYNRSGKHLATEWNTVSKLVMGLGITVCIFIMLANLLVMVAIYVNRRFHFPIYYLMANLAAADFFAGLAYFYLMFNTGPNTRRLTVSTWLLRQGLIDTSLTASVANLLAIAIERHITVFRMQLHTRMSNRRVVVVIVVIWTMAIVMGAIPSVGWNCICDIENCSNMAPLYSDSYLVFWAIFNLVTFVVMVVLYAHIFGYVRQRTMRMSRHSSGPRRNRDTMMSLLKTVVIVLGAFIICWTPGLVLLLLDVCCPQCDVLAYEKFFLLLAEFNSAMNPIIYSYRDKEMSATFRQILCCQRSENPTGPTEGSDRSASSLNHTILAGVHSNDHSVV

For `CCCCCCCC/C=C\CCCCCCCC(=O)NCCC(=O)P(=O)(O)O` [Compound 2], the EC50 (LPA2) is listed as 1.09 µM and the EC50 (LPA1) is listed as 0.221 µM.
For `CCCCCCCCCC/C=C\CCCCCCCC(=O)OC[C@@H](O)COP(=O)(O)O` [Compound 16, (2R)-2-Hydroxy-3-(phosphonooxy)propyl (9Z)-icos-9-enoate], the “LPA1 agonist activity (in words)” value (LPA1 receptor) was “inactive”.
For `O=C(CCCCCCCc1ccccc1)OC[C@@H](O)COP(=O)(O)O` [Compound 19, (2R)-2-Hydroxy-3-(phosphonooxy)propyl 8-phenyloctanoate], the “LPA1 agonist activity (in words)” value (LPA1 receptor) was “inactive”.
With `O=C(CCCCCCCCCc1ccccc1)O[C@H](CBr)COP(=O)(O)O` [Compound (S)-17, (2S)-1-Bromo-3-(phosphonooxy)propan-2-yl 10-phenyldecanoate] the neurite retraction [1] was “induced neurite retraction”, the “exploratory or locomotor activity” value (mice [2]) was “did not induce any alteration in the exploratory or locomotor activity” and the “number of writhes after acute single administration” value (mice [3]) was “increased the number of writhes in the first minutes after the administration”. For the same molecule, the “compound remaining (stability)” value ([4]; PBS) was > 85%, the “compound remaining (stability)” value ([4]; culture media) was > 85% and the mechanical nociceptive threshold (mice with SNI) was “significantly superior compared to vehicle-treated mice”. For the same molecule, the “Ca2+ response on repeated application” value [5] was “induced a reduction of the Ca^2+ responses”, the “neuronal firing of action potentials on repeated application” value [6] was “provoked the firing of action potentials that were attenuated upon a second instillation” and the cell migration [7] was “induced cell migration”.
With `CCCCCCCC/C=C\CCCCCCCC(=O)OC[C@@H](O)COP(=O)(O)O` [LPA, 1-oleoyl-sn-glycerol-3-phosphate, reference compound] the “Ca2+ response relative to 10 μM ionomycin” value (LPA1 receptor; 10 μM LPA, positive control) was 30–33%, the Emax at 10 µM (LPA1 receptor; RH7777) was 100% and the “Ca2+ response on repeated application” value [5] was “the Ca^2+ response is notably reduced in a second LPA application”. For the same molecule, the “neuronal firing of action potentials on repeated application” value [6] was “provoked the firing of action potentials that were attenuated upon a second instillation” and the LPA1 internalization [8] was “the receptor is internalized”.
